According to patent US20050276762A1, “Topical compositions containing 5'-adenosine-diphosphate ribose” (priority 2004, published 2005):

What was measured:
[1] = target: poly (ADP-ribose) polymerase (PARP) (Homo sapiens, UniProt P09874); experiment: PARP assay (in vitro PARP inhibition); format: biochemical; settings: same concentration as ADP-ribose (4 to 10 mM); FIG. 2
Description: 1. […] 2. Cover the plate with an adhesive plate sealer and incubate for 2 hours at room temperature (or overnight at 2-8° C.). 1. […] After the last wash, remove any remaining PBS by decanting. Invert the plate and blot it against clean paper toweling. Note, at this time plates can be air dried and stored covered at room temperature for later use. 2. Block the wells by adding 50 μL of Strep Diluent to each well. 3. Cover the plate with an adhesive plate sealer and incubate for 1 hour at room temperature (or overnight at 2-8° C.). […] PARP will autoribosylate in the presence of NAD. 1. […] After the last wash, remove any remaining PBS by decanting. Invert the plate and blot it against clean paper toweling. 2. […] 3. Add inhibitor of interest. The final reaction volume is 50 μL/well. […] Enzyme is added last. • For 24 wells: Make for 20=2×0.5 units=10 units • 20 wells×5 μL=100 μL 10 μL enzyme+90 μl of 1× PARP buffer […] 5. Incubate the plate for 30 minutes at room temperature. The extent of ribosylation is time dependant; therefore this step can be extended if desired. 1. […] After the last wash, remove any remaining PBS by decanting. Invert the plate and blot it against clean paper toweling. 2. Dilute Strep-HRP • Dilute 1:500 • For 20 wells=1,100 μL Strep diluent+2.2 μL Strep-HRP • Add 50 μL of diluted Strep-HRP to each well. 3. Incubate for 30 minutes at 37° C. […] After the last wash, remove any remaining PBS by decanting. Invert the plate and blot it against clean paper toweling. 5. Add 50 μL TACS-Sapphire dye to each well. Incubate for 10 minutes in the dark.

[2] = system: Human A549 cells; settings: for cytoprotection against H2O2 (in words): same concentration as ADP-ribose (25 or 50 μg/ml)

Chain of poly (ADP-ribose) polymerase (PARP) (P09874 whole entry): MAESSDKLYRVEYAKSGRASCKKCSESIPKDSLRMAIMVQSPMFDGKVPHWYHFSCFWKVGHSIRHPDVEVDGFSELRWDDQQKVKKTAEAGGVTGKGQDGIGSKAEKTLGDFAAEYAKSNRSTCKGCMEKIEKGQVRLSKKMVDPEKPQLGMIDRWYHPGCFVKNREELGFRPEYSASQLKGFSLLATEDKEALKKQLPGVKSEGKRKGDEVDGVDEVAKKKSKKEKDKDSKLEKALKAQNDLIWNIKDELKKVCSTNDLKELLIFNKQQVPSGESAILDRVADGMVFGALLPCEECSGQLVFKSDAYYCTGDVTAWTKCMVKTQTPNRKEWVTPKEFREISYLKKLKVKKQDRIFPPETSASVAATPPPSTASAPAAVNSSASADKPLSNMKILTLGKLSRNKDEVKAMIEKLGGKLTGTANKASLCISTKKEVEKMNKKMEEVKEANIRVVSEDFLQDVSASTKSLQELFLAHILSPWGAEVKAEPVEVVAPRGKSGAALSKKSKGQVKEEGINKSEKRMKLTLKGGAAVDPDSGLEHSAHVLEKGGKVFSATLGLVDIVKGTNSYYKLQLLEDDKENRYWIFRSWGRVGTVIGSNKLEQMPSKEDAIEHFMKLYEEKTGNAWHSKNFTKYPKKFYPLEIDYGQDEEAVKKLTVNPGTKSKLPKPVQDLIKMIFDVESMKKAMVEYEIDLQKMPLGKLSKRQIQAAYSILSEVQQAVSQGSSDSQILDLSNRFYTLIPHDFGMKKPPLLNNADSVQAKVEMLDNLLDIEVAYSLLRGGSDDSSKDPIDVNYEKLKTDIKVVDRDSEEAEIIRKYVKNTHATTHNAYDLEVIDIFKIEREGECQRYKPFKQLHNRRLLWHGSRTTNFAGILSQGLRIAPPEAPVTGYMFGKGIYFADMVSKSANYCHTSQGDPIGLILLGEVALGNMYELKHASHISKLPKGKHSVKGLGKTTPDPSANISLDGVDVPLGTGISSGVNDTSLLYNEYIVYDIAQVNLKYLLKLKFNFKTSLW

Row | Structure (SMILES) | inhibition of PARP activity (in words) [1] | protection from H2O2 cytotoxicity [2] | cytoprotection against H2O2 (in words) [2] | protection of cells from cytotoxicity mediated cell death (in words) [2]
1 | Nc1ncnc2c1ncn2[C@@H]1O[C@H](COP(=O)(O)OP(=O)(O)O[C@H]2O[C@H](CO)[C@@H](O)[C@H](O)[C@H]2O)[C@@H](O)[C@H]1O [ADP-glucose] | unable to inhibit PARP activity | ~25% | cytoprotection was specific to ADP-ribose | 
2 | N=c1c2ncn3c2ncn1[C@@H]1O[C@H](COP(=O)(O)OP(=O)(O)OC[C@H]2O[C@@H]3[C@H](O)[C@@H]2O)[C@@H](O)[C@H]1O [cADP-ribose] |  |  |  | unable to protect cells from cytotoxicity mediated cell death
3 | Nc1ncnc2c1ncn2[C@@H]1O[C@H](COP(=O)(O)O)[C@@H](O)[C@H]1O [AMP] | unable to inhibit PARP activity |  | cytoprotection was specific to ADP-ribose | 
4 | Nc1ncnc2c1ncn2[C@@H]1O[C@H](CO)[C@@H](O)[C@H]1O [adenosine] | unable to inhibit PARP activity |  | cytoprotection was specific to ADP-ribose | 
